Usually IC50 stands for the concentration needed to halve the response being measured.

The structures appear in SMILES notation. A value given as a limit tells only on which side of the number the result lay.

The values that follow come from patent US20090264415A2 (priority 2004, published 2009).

The test system of this experiment is peripheral blood mononuclear cells (PBMC) stimulated with allogeneic PBMC or EBV-transformed human B cells (RPMI1788). In words: Mixed lymphocyte reaction (MLR) assay. The class given is cell-based. As to conditions: Homo sapiens, RPMI-1788; MLR assay of example 319; read-out: MLR IC50. How it is done:
Pyrido[3,2-d]pyrimidine derivatives were first dissolved (10 mM) in dimethyl-sulfoxide (hereinafter referred as DMSO) and further diluted in culture medium before use for the following in vitro experiments. […] Some pyrido[3,2-d]pyrimidine derivatives described herein were tested in the following mixed lymphocyte reaction (MLR) assay.
Peripheral blood mononuclear cells (hereinafter referred as PBMC) were isolated from heparinized peripheral blood by density gradient centrifugation over Lymphoprep (Nycomed, Maorstua, Norway). Allogeneic PBMC or Eppstein-Barr Virus-transformed human B cells [commercially available under the trade name RPM11788 (ATCC name CCL156)] which strongly express B7-1 and B7-2 antigens were used as stimulator cells after irradiation with 30 Gy. MLR was performed in triplicate wells. After 5 days incubation at 37° C., 1 μCi [^3H]-thymidine was added to each cup. After a further 16 hours incubation, cells were harvested and counted in a β-counter. Inhibition of proliferation by a compound described in some of the present examples was counted while using the formula: [formula] wherein cpm is the thymidine count per minute. The MLR assay is regarded by those skilled in the art as an in vitro analogue of the transplant rejection since it is based on the recognition of allogeneic major histocompatibility antigens on the stimulator leukocytes, by responding lymphocytes.
As for `C=CC(=O)N1CCN(c2nc(N)nc3ccc(-c4ccc(OC)c(OC)c4)nc23)CC1` [Example 393, 2-amino-4-[4-(2-propenoyl)piperazin-1-yl]-6-(3,4-dimethoxyphenyl)-pyrido[3,2-d]pyrimidine], the IC50 was 400 nM.

With `COc1ccc(-c2ccc3nc(N)nc(N4CCN(C(=O)CNC(=O)OC(C)(C)C)CC4)c3n2)cc1OC` [Example 396, 2-amino-4-{4-[N-(tert-butoxycarbonyl)-glycyl]-piperazin-1-yl}-6-(3,4-di-methoxyphenyl)-pyrido[3,2-d]pyrimidine], the IC50 is 50 nM. As for `Nc1nc(N2CCN(C(=O)COc3ccc(Cl)cc3)CC2)c2nc(-c3ccc(C(F)(F)F)cc3)ccc2n1` [Example 399, 2-amino-4-[4-(4-chlorophenoxyacetyl)piperazin-1-yl]-6-(4-trifluoromethylphenyl)-pyrido[3,2-d]pyrimidine], the IC50 amounted to 500 nM. To `N#Cc1ccc(-c2ccc3nc(N)nc(N4CCN(C(=O)COc5ccc(Cl)cc5)CC4)c3n2)cc1` [Example 400, 2-amino-4-[4-(4-chlorophenoxyacetyl)piperazin-1-yl]-6-(4-cyanophenyl)pyrido-[3,2-d]pyrimidine] belongs 50 nM; to `Nc1nc(N2CCN(C(=O)COc3ccc(Cl)cc3)CC2)c2nc(-c3cccc(F)c3)ccc2n1` [Example 401, 2-amino-4-[4-(4-chlorophenoxyacetyl)piperazin-1-yl]-6-(3-fluorophenyl)pyrido-[3,2-d]pyrimidine], 300 nM; to `Nc1nc(N2CCN(C(=O)COc3ccc(Cl)cc3)CC2)c2nc(-c3ccoc3)ccc2n1` [Example 402, 2-amino-4-[4-(4-chlorophenoxyacetyl)piperazin-1-yl]-6-(furan-3-yl)pyrido-[3,2-d]pyrimidine], 30 nM. Next, `Nc1nc(N2CCN(C(=O)COc3ccc(Cl)cc3)CC2)c2nc(-c3ccsc3)ccc2n1` [Example 403, 2-amino-4-[4-(4-chlorophenoxyacetyl)piperazin-1-yl]-6-(thiophen-3-yl)pyrido-[3,2-d]pyrimidine]: 40 nM; `Nc1nc(N2CCN(C(=O)COc3ccc(Cl)cc3)CC2)c2nc(-c3ccc(F)c(F)c3)ccc2n1` [Example 404, 2-amino-4-[4-(4-chlorophenoxyacetyl)piperazin-1-yl]-6-(3,4-difluorophenyl)pyrido-[3,2-d]pyrimidine]: 40 nM; `Nc1nc(N2CCN(C(=O)COc3ccc(Cl)cc3)CC2)c2nc(-c3ccc(Cl)cc3)ccc2n1` [Example 405, 2-amino-4-[4-(4-chlorophenoxyacetyl)piperazin-1-yl]-6-(4-chlorophenyl)pyrido-[3,2-d]pyrimidine]: 50 nM. Next, `Nc1nc(N2CCN(C(=O)COc3ccc(Cl)cc3)CC2)c2nc(-c3cccc(Cl)c3)ccc2n1` [Example 406, 2-amino-4-[4-(4-chlorophenoxyacetyl)piperazin-1-yl]-6-(3-chlorophenyl)pyrido-[3,2-d]pyrimidine]: 70 nM; `Nc1nc(N2CCN(C(=O)COc3ccc(Cl)cc3)CC2)c2nc(-c3ccncc3)ccc2n1` [Example 407, 2-amino-4-[4-(4-chlorophenoxyacetyl)piperazin-1-yl]-6-(pyridin-4-yl)pyrido-[3,2-d]pyrimidine]: 5 nM; `Nc1nc(N2CCN(C(=O)COc3ccc(Cl)cc3)CC2)c2nc(-c3ccc(F)c(Cl)c3)ccc2n1` [Example 408, 2-amino-4-[4-(4-chlorophenoxyacetyl)piperazin-1-yl]-6-(3-chloro-4-fluorophenyl)-pyrido-[3,2-d]pyrimidine]: 200 nM.

Turning to `Nc1nc(N2CCN(C(=O)COc3ccc(Cl)cc3)CC2)c2nc(-c3cccnc3)ccc2n1` [Example 409, 2-amino-4-[4-(4-chlorophenoxyacetyl)piperazin-1-yl]-6-(pyridin-3-yl)pyrido-[3,2-d]pyrimidine], the 50% inhibitory concentration (IC50) turned out to be 5 nM. With `COc1ccc(-c2ccc3nc(N)nc(N4CCN(C(=O)COc5ccc(Cl)cc5)CC4)c3n2)cn1` [Example 410, 2-amino-4-[4-(4-chlorophenoxyacetyl)piperazin-1-yl]-6-(2-methoxypyridin-5-yl)pyrido-[3,2-d]pyrimidine], the IC50 came out at 9 nM.

In the case of `Cc1noc(C)c1-c1ccc2nc(N)nc(N3CCN(C(=O)COc4ccc(Cl)cc4)CC3)c2n1` [Example 411, 2-amino-4-[4-(4-chlorophenoxyacetyl)piperazin-1-yl]-6-(3,5-dimethylisoxazol-4-yl)pyrido-[3,2-d]pyrimidine], the IC50 is 34 nM. Next, `Nc1nc(N2CCN(C(=O)COc3ccc(Cl)cc3)CC2)c2nc(-c3ccc4[nH]ccc4c3)ccc2n1` [Example 412, 2-amino-4-[4-(4-chlorophenoxyacetyl)piperazin-1-yl]-6-(indol-5-yl)pyrido-[3,2-d]pyrimidine]: 39 nM; `Nc1nc(N2CCN(C(=O)COc3ccc(Cl)cc3)CC2)c2nc(-c3ccc(C(=O)O)s3)ccc2n1` [Example 413, 2-amino-4-[4-(4-chlorophenoxyacetyl)piperazin-1-yl]-6-(2-carboxythiophen-5-yl)pyrido-[3,2-d]pyrimidine]: above 10000 nM. For the compound `N#Cc1cccc(-c2ccc3nc(N)nc(N4CCN(C(=O)COc5ccc(Cl)cc5)CC4)c3n2)c1` [Example 414, 2-amino-4-[4-(4-chlorophenoxyacetyl)piperazin-1-yl]-6-(3-cyanophenyl)pyrido-[3,2-d]pyrimidine], the IC50 was 20 nM. To `Nc1nc(N2CCN(C(=O)COc3ccc(Cl)cc3)CC2)c2nc(-c3ccc(O)cc3)ccc2n1` [Example 415, 2-amino-4-[4-(4-chlorophenoxyacetyl)piperazin-1-yl]-6-(4-hydroxyphenyl)pyrido-[3,2-d]pyrimidine] belongs 6 nM.

On to `N#Cc1ccccc1-c1ccc2nc(N)nc(N3CCN(C(=O)COc4ccc(Cl)cc4)CC3)c2n1` [Example 416, 2-amino-4-[4-(4-chlorophenoxyacetyl)piperazin-1-yl]-6-(2-cyanophenyl)pyrido-[3,2-d]pyrimidine], for which the IC50 was determined as 12 nM. Next, `CS(=O)(=O)c1ccc(-c2ccc3nc(N)nc(N4CCN(C(=O)COc5ccc(Cl)cc5)CC4)c3n2)cc1` [Example 417, 2-amino-4-[4-(4-chlorophenoxyacetyl)piperazin-1-yl]-6-(4-(methanesulfonyl)-phenyl)pyrido-[3,2-d]pyrimidine]: 28 nM; `COc1cccc(-c2ccc3nc(N)nc(N4CCN(C(=O)COc5ccc(Cl)cc5)CC4)c3n2)c1` [Example 418, 2-amino-4-[4-(4-chlorophenoxyacetyl)piperazin-1-yl]-6-(3-methoxyphenyl)pyrido-[3,2-d]pyrimidine]: 57 nM. Next, `Nc1cccc(-c2ccc3nc(N)nc(N4CCN(C(=O)COc5ccc(Cl)cc5)CC4)c3n2)c1` [Example 419, 2-amino-4-[4-(4-chlorophenoxyacetyl)piperazin-1-yl]-6-(3-aminophenyl)pyrido-[3,2-d]pyrimidine]: 20 nM; `Cc1cc(-c2ccc3nc(N)nc(N4CCN(C(=O)COc5ccc(Cl)cc5)CC4)c3n2)ccc1F` [Example 420, 2-amino-4-[4-(4-chlorophenoxyacetyl)piperazin-1-yl]-6-(4-fluoro-3-methylphenyl)-pyrido-[3,2-d]pyrimidine]: 300 nM; `Nc1nc(N2CCN(C(=O)COc3ccc(Cl)cc3)CC2)c2nc(-c3ccccc3)ccc2n1` [Example 421, 2-amino-4-[4-(4-chlorophenoxyacetyl)piperazin-1-yl]-6-phenylpyrido-[3,2-d]pyrimidine]: 49 nM. Next, `COc1ccccc1-c1ccc2nc(N)nc(N3CCN(C(=O)COc4ccc(Cl)cc4)CC3)c2n1` [Example 422, 2-amino-4-[4-(4-chlorophenoxyacetyl)piperazin-1-yl]-6-(2-methoxyphenyl)pyrido-[3,2-d]pyrimidine]: 100 nM. Consider `Nc1nc(N2CCN(C(=O)COc3ccc(Cl)cc3)CC2)c2nc(-c3ccc(F)cc3F)ccc2n1` [Example 423, 2-amino-4-[4-(4-chlorophenoxyacetyl)piperazin-1-yl]-6-(2,4-difluorophenzyl)pyrido-[3,2-d]pyrimidine], for which the IC50 was 100 nM. To `Nc1nc(N2CCN(C(=O)COc3ccc(Cl)cc3)CC2)c2nc(-c3ccccc3F)ccc2n1` [Example 424, 2-amino-4-[4-(4-chlorophenoxyacetyl)piperazin-1-yl]-6-(2-fluorophenyl)pyrido-[3,2-d]pyrimidine] belongs 110 nM; to `Nc1nc(N2CCN(C(=O)COc3ccc(Cl)cc3)CC2)c2nc(-c3cccc(Cl)c3Cl)ccc2n1` [Example 425, 2-amino-4-[4-(4-chlorophenoxyacetyl)piperazin-1-yl]-6-(2,3-dichlorophenyl)-pyrido-[3,2-d]pyrimidine], 300 nM. To `COc1ccc(-c2ccc3nc(N)nc(N4CCN(C(=O)COc5ccc(Cl)cc5)CC4)c3n2)cc1` [Example 426, 2-amino-4-[4-(4-chlorophenoxyacetyl)piperazin-1-yl]-6-(4-methoxyphenyl)pyrido-[3,2-d]pyrimidine] belongs 30 nM.

Turning to `Nc1nc(N2CCN(C(=O)COc3ccc(Cl)cc3)CC2)c2nc(-c3ccc(Cl)cc3Cl)ccc2n1` [Example 427, 2-amino-4-[4-(4-chlorophenoxyacetyl)piperazin-1-yl]-6-(2,4-dichlorophenyl)-pyrido-[3,2-d]pyrimidine], the IC50 worked out at 300 nM.
